One test deals with human orexin-2 receptor (Homo sapiens (Human), UniProt O43614). Description: hOX2R FLIPR Ca2+ flux assay. The following applies: CHO cells expressing human orexin-2 receptor; agonist 70 pM Ala-6,12 orexin-A. Format: cell-based. Here is the method: In a typical experiment the OX1 and OX2 receptor antagonistic activity of the compounds of the present invention was determined in accordance with the following experimental method. For intracellular calcium measurements, Chinese hamster ovary (CHO) cells expressing the rat orexin-1 receptor or the human orexin-2 receptor, are grown in Iscove's modified DMEM containing 2 mM L-glutamine, […], 1% hypoxanthine-thymidine supplement, 100 U/ml penicillin, 100 μg/ml streptomycin and 10% heat-inactivated fetal calf serum (FCS). The cells are seeded at 20,000 cells/well into Becton-Dickinson black 384-well clear bottom sterile plates coated with poly-D-lysine. All reagents were from GIBCO-Invitrogen Corp. The seeded plates are incubated overnight at 37° C. and 5% CO2. Ala-6,12 human orexin-A as the agonist is prepared as a 1 mM stock solution in 1% bovine serum albumin (BSA) and diluted in assay buffer (HBSS containing 20 mM HEPES, 0.1% BSA and 2.5 mM probenecid, pH7.4) for use in the assay at a final concentration of 70 pM. Test compounds are prepared as 10 mM stock solution in DMSO, then diluted in 384-well plates, first in DMSO, then assay buffer. On the day of the assay, cells are washed 3 times with 100 μl assay buffer and then incubated for 60 min (37° C., 5% CO2) in 60 μl assay buffer containing […] Fluo-4AM ester, 0.02% pluronic acid, and 1% BSA. The dye loading solution is then aspirated and cells are washed 3 times with 100 μl assay buffer. 30 μl of that same buffer is left in each well. Within the Fluorescent Imaging Plate Reader (FLIPR, Molecular Devices), test compounds are added to the plate in a volume of 25 μl, incubated for 5 min and finally 25 μl of agonist is added. Fluorescence is measured for each well at 1 second intervals for 5 minutes and the height of each fluorescence peak is compared to the height of the fluorescence peak induced by 70 pM Ala-6,12 orexin-A with buffer in place of antagonist. For each antagonist, IC50 value (the concentration of compound needed to inhibit 50% of the agonist response) is determined. Alternatively, compound potency can be assessed by a radioligand binding assay (described in Bergman et. al. Bioorg. Med. Chem. Lett. 2008, 18, 1425-1430) in which the inhibition constant (Ki) is determined in membranes prepared from CHO cells expressing either the OX1 or OX2 receptor. The intrinsic orexin receptor antagonist activity of a compound which may be used in the present invention may be determined by these assays.

The next test has as its target hOX1R (Homo sapiens, UniProt O43613). Description: hOX1R FLIPR Ca2+ flux assay. Format: cell-based. A general note: Calcium assays in cells follow changes in intracellular calcium, usually with a dye or a luminescent sensor.
Where [1] appears, read: CHO cells expressing orexin-1 receptor, agonist 70 pM Ala-6,12 orexin-A, read-out: hOX1R FLIPR IC50.

The text below walks through data of patent US9920038B2, “Methyl oxazole orexin receptor antagonists” (MERCK SHARP & DOHME CORP., priority 2014, dated 2018).

Read-outs that look alike come from different tables or passages of the source.

Chain of human orexin-2 receptor (O43614 whole entry): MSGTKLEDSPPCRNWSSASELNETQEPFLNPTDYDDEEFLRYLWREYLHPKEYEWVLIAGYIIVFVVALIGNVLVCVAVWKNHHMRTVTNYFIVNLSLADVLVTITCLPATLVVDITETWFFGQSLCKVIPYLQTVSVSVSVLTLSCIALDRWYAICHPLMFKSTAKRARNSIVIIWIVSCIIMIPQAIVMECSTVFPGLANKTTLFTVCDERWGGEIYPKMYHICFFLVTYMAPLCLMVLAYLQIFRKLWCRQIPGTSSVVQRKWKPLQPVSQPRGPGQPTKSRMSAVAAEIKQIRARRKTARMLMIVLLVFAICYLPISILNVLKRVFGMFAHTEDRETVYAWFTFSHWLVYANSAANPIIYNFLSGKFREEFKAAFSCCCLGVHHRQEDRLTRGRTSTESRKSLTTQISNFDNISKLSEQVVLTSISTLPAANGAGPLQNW

Usually IC50 stands for the concentration at which inhibition is half-maximal. Take `Cc1oc(C[C@H]2CCCCN2C(=O)c2ccccc2-n2nccn2)nc1C(C)(C)O` [Example 1, (R)-(2-(2H-1,2,3-triazol-2-yl)phenyl)(2-((4-(2-hydroxypropan-2-yl)-5-methyloxazol-2-yl)methyl)piperidin-1-yl)methanone]: the IC50 at human orexin-2 receptor turned out to be 14 nM; at hOX1R (setting [1]), 18 nM.
The like results for `CCOc1ncccc1C(=O)N1CCCC[C@@H]1Cc1nc(C(C)(C)O)c(C)o1` [Example 2, (R)-(2-ethoxypyridin-3-yl)(2-((4-(2-hydroxypropan-2-yl)-5-methyloxazol-2-yl)methyl)piperidin-1-yl)methanone] were, in that order, 20 nM and 152 nM.
For the compound `Cc1oc(C[C@H]2CCCCN2C(=O)c2ccccc2C2CC2)nc1C(C)(C)O` [Example 3, (R)-(2-cyclopropylphenyl)(2-((4-(2-hydroxypropan-2-yl)-5-methyloxazol-2-yl)methyl)piperidin-1-yl)methanone], the IC50 amounted to 17 nM on human orexin-2 receptor and 212 nM against hOX1R.
With `Cc1oc(C[C@H]2CCCCN2C(=O)c2ccc(F)cc2-n2nccn2)nc1C(C)(C)O` [Example 4, (R)-(4-fluoro-2-(2H-1,2,3-triazol-2-yl)phenyl)(2-((4-(2-hydroxypropan-2-yl)-5-methyloxazol-2-yl)methyl)piperidin-1-yl)methanone], the IC50 on human orexin-2 receptor was found to be 25 nM; at hOX1R (setting [1]), 39 nM.
In the same order, the values of `Cc1oc(C[C@H]2CCCCN2C(=O)c2cccnc2OCC(F)(F)F)nc1C(C)(C)O` [Example 5, (R)-(2-((4-(2-hydroxypropan-2-yl)-5-methyloxazol-2-yl)methyl)piperidin-1-yl)(2-(2,2,2-trifluoroethoxy)pyridin-3-yl)methanone] are 19 nM and 162 nM.
In the same order, the values of `Cc1oc(C[C@H]2CCCCN2C(=O)c2cccnc2OC(C)C)nc1C(C)(C)O` [Example 6, (R)-(2-((4-(2-hydroxypropan-2-yl)-5-methyloxazol-2-yl)methyl)piperidin-1-yl)(2-isopropoxypyridin-3-yl)methanone] are 36 nM and 223 nM.
In the same order, the values of `Cc1oc(C[C@H]2CCCCN2C(=O)c2ccccc2N2CCCC2)nc1C(C)(C)O` [Example 7, (R)-(2-((4-(2-hydroxypropan-2-yl)-5-methyloxazol-2-yl)methyl)piperidin-1-yl)(2-(pyrrolidin-1-yl)phenyl)methanone] are 51 nM and 67 nM.
Consider `CCOc1ccccc1C(=O)N1CCCC[C@@H]1Cc1nc(C(C)(C)O)c(C)o1` [Example 8, (R)-(2-ethoxyphenyl)(2-((4-(2-hydroxypropan-2-yl)-5-methyloxazol-2-yl)methyl)piperidin-1-yl)methanone], for which the IC50 at human orexin-2 receptor stood at 28 nM; at hOX1R (setting [1]), 256 nM.
In the same order, the values of `Cc1oc(C[C@H]2CCCCN2C(=O)c2ccccc2OC(F)(F)F)nc1C(C)(C)O` [Example 9, (R)-(2-((4-(2-hydroxypropan-2-yl)-5-methyloxazol-2-yl)methyl)piperidin-1-yl)(2-(trifluoromethoxy)phenyl) methanone] are 109 nM and 348 nM.
The like results for `Cc1oc(C[C@H]2CCCCN2C(=O)c2ccccc2-n2cccn2)nc1C(C)(C)O` [Example 10, (R)-(2-(1H-pyrazol-1-yl)phenyl)(2-((4-(2-hydroxypropan-2-yl)-5-methyloxazol-2-yl)methyl)piperidin-1-yl)methanone] were, in that order, 51 nM and 129 nM.
On to `Cc1oc(C[C@H]2CCCCN2C(=O)c2cccnc2CC(F)(F)F)nc1C(C)(C)O` [Example 11, (R)-(2-((4-(2-hydroxypropan-2-yl)-5-methyloxazol-2-yl)methyl)piperidin-1-yl)(2-(2,2,2-trifluoroethyl)pyridin-3-yl)methanone], for which the IC50 on hOX1R (setting [1]) was above 10000 nM.
Turning to `Cc1oc(C[C@H]2CCCCN2C(=O)c2ccccc2CC(F)F)nc1C(C)(C)O` [Example 12, (R)-(2-(2,2-difluoroethyl)phenyl)(2-((4-(2-hydroxypropan-2-yl)-5-methyloxazol-2-yl)methyl)piperidin-1-yl)methanone], the IC50 was 98 nM on human orexin-2 receptor and 2180 nM at hOX1R (setting [1]).
In the same order, the values of `Cc1oc(C[C@H]2CCCCN2C(=O)c2cccnc2-n2cccn2)nc1C(C)(C)O` [Example 13, (R)-(2-(1H-pyrazol-1-yl)pyridin-3-yl)(2-((4-(2-hydroxypropan-2-yl)-5-methyloxazol-2-yl)methyl)piperidin-1-yl)methanone] are 24 nM and 51 nM.
In the case of `Cc1oc(C[C@H]2CCCCN2C(=O)c2cccnc2-c2ccccc2)nc1C(C)(C)O` [Example 14, (R)-(2-((4-(2-hydroxypropan-2-yl)-5-methyloxazol-2-yl)methyl)piperidin-1-yl)(2-phenylpyridin-3-yl)methanone], the IC50 on human orexin-2 receptor turned out to be 38 nM; at hOX1R (setting [1]), 80 nM.
The like results for `Cc1oc(C[C@H]2CCCCN2C(=O)c2ccccc2OC(F)F)nc1C(C)(C)O` [Example 15, (R)-(2-(difluoromethoxy)phenyl)(2-((4-(2-hydroxypropan-2-yl)-5-methyloxazol-2-yl)methyl)piperidin-1-yl)methanone] were, in that order, 98 nM and 1090 nM.
As to `Cc1oc(C[C@H]2CCCCN2C(=O)c2cccnc2OCC(F)F)nc1C(C)(C)O` [Example 16, (R)-(2-(2,2-difluoroethoxy)pyridin-3-yl)(2-((4-(2-hydroxypropan-2-yl)-5-methyloxazol-2-yl)methyl)piperidin-1-yl)methanone], the IC50 was determined as 49 nM at human orexin-2 receptor and 373 nM on hOX1R (setting [1]).
Turning to `Cc1oc(C[C@H]2CCCCN2C(=O)c2ccccc2OCC(F)(F)F)nc1C(C)(C)O` [Example 17, (R)-(2-((4-(2-hydroxypropan-2-yl)-5-methyloxazol-2-yl)methyl)piperidin-1-yl)(2-(2,2,2-trifluoroethoxy)phenyl)methanone], the IC50 at human orexin-2 receptor worked out at 99 nM; on hOX1R (setting [1]) it was 952 nM.
The like results for `Cc1oc(C[C@H]2CCCCN2C(=O)c2ccccc2CC(F)(F)F)nc1C(C)(C)O` [Example 18, (R)-(2-((4-(2-hydroxypropan-2-yl)-5-methyloxazol-2-yl)methyl)piperidin-1-yl)(2-(2,2,2-trifluoroethyl)phenyl)-methanone] were, in that order, 118 nM and 1690 nM.
The like results for `COc1ccc(C(=O)N2CCCC[C@@H]2Cc2nc(C(C)(C)O)c(C)o2)c(C2CC2)n1` [Example 19, (R)-(2-cyclopropyl-6-methoxypyridin-3-yl)(2-((4-(2-hydroxypropan-2-yl)-5-methyloxazol-2-yl)methyl)piperidin-1-yl)methanone] were, in that order, 503 nM and 2310 nM.
The like results for `Cc1oc(C[C@H]2CCCCN2C(=O)c2ccccc2OCC(F)F)nc1C(C)(C)O` [Example 20, (R)-(2-(2,2-difluoroethoxy)phenyl)(2-((4-(2-hydroxypropan-2-yl)-5-methyloxazol-2-yl)methyl)piperidin-1-yl)methanone] were, in that order, 112 nM and 690 nM.
As to `Cc1oc(C[C@H]2CCCCN2C(=O)c2ncccc2-n2nccn2)nc1C(C)(C)O` [Example 21, (R)-(3-(2H-1,2,3-triazol-2-yl)pyridin-2-yl)(2-((4-(2-hydroxypropan-2-yl)-5-methyloxazol-2-yl)methyl)piperidin-1-yl)methanone], the results for the IC50 on human orexin-2 receptor and at hOX1R (setting [1]) were 225 nM and 1850 nM, respectively.
In the same order, the values of `Cc1oc(C[C@H]2CCCCN2C(=O)c2nccnc2-c2ccccn2)nc1C(C)(C)O` [Example 22, (R)-(2-((4-(2-hydroxypropan-2-yl)-5-methyloxazol-2-yl)methyl)piperidin-1-yl)(3-(pyridin-2-yl)pyrazin-2-yl)methanone] are 558 nM and 2930 nM.
On to `Cc1oc(C[C@H]2CCCCN2C(=O)c2nccnc2N2CCCC2)nc1C(C)(C)O` [Example 23, (R)-(2-((4-(2-hydroxypropan-2-yl)-5-methyloxazol-2-yl)methyl)piperidin-1-yl)(3-(pyrrolidin-1-yl)pyrazin-2-yl)methanone], for which the IC50 on human orexin-2 receptor and at hOX1R (setting [1]) was above 10000 nM throughout.
As to `Cc1oc(C[C@H]2CCCCN2C(=O)c2ccccc2C2CCC2)nc1C(C)(C)O` [Example 24, (R)-(2-cyclobutylphenyl)(2-((4-(2-hydroxypropan-2-yl)-5-methyloxazol-2-yl)methyl)piperidin-1-yl)methanone], the IC50 at human orexin-2 receptor was found to be 114 nM; on hOX1R (setting [1]) it was 184 nM.
